ChEMBL document CHEMBL5154842, “Unique Carbazole-Oxadiazole Derivatives as New Potential Antibiotics for Combating Gram-Positive and -Negative Bacteria” (J Med Chem, 2022)
≈ marks a conversion by molar mass, not a printed value. Calls of active or inactive are those of the source. The calls are words filed in the database; no cut-off is given here.

Columns and labels:
Pseudomonas aeruginosa [1] = assay: Antibacterial activity against Pseudomonas aeruginosa assessed as inhibition of bacterial growth incubated for 24 hrs by CLSI protocol based two fold serial dilution method; type: functional
Enterococcus faecalis = assay: Antibacterial activity against Enterococcus faecalis assessed as inhibition of bacterial growth incubated for 24 hrs by CLSI protocol based two fold serial dilution method; type: functional
Staphylococcus aureus [2] = assay: Antibacterial activity against Staphylococcus aureus 25923 assessed as inhibition of bacterial growth incubated for 24 hrs by CLSI protocol based two fold serial dilution method; type: functional
Acinetobacter baumannii = assay: Antibacterial activity against Acinetobacter baumannii assessed as inhibition of bacterial growth incubated for 24 hrs by CLSI protocol based two fold serial dilution method; type: functional
Staphylococcus aureus [3] = assay: Antibacterial activity against Staphylococcus aureus 29213 assessed as inhibition of bacterial growth incubated for 24 hrs by CLSI protocol based two fold serial dilution method; type: functional
Escherichia coli [4] = assay: Antibacterial activity against Escherichia coli 25922 assessed as inhibition of bacterial growth incubated for 24 hrs by CLSI protocol based two fold serial dilution method; type: functional
Pseudomonas aeruginosa [5] = assay: Antibacterial activity against Pseudomonas aeruginosa ATCC 27853 assessed as change in susceptibility at sub-MIC treated over 9 serial passages measured after 9 days by resistance development assay; type: functional, organism-based; conditions: time 9.0 day
Pseudomonas aeruginosa [6] = assay: Antibacterial activity against Pseudomonas aeruginosa ATCC 27853 assessed as inhibition of bacterial growth incubated for 24 hrs by CLSI protocol based two fold serial dilution method; type: functional
Staphylococcus aureus [7] = assay: Antibacterial activity against methicillin-resistant Staphylococcus aureus N315 assessed as change in susceptibility at sub-MIC treated over 9 serial passages measured after 9 days by resistance development assay; type: functional, organism-based; conditions: time 9.0 day
Klebsiella pneumoniae = assay: Antibacterial activity against Klebsiella pneumonia assessed as inhibition of bacterial growth incubated for 24 hrs by CLSI protocol based two fold serial dilution method; type: functional
Escherichia coli [8] = assay: Antibacterial activity against Escherichia coli assessed as inhibition of bacterial growth incubated for 24 hrs by CLSI protocol based two fold serial dilution method; type: functional
Staphylococcus aureus [9] = assay: Antibacterial activity against methicillin-resistant Staphylococcus aureus N315 assessed as inhibition of bacterial growth incubated for 24 hrs by CLSI protocol based two fold serial dilution method; type: functional
Staphylococcus aureus [10] = assay: Antibacterial activity against Staphylococcus aureus assessed as inhibition of bacterial growth incubated for 24 hrs by CLSI protocol based two fold serial dilution method; type: functional
[11] = Hemolytic activity in human RBC assessed as hemolysis at 1 to 32 ug/ml measured after 60 mins by microplate reader assay relative to control; type: toxicity, cell-based, Erythrocyte; conditions: red blood cells (erythrocytes), at 1 to 32 µg/mL, dose 1-32 µg/ml, read-out: Activity
Staphylococcus aureus [12] = assay: Antibacterial activity against methicillin-resistant Staphylococcus aureus N315 assessed as inhibition of bacterial growth at 0.25 to 64 ug/ml incubated for 24 hrs by Alamar blue assay; type: functional, organism-based; conditions: dose 0.25-64 µg/ml
Staphylococcus aureus [13] = assay: Antibacterial activity against methicillin-resistant Staphylococcus aureus N315 assessed as increase in germicidal effect at 0.5 ug/ml measured after 7 hrs by microplate reader assay; type: functional, organism-based; conditions: dose 0.5 µg/ml
Cell membrane [14] = assay: Induction of inner membrane permeabilization in Pseudomonas aeruginosa ATCC 27853 assessed as increase in PI uptake by measuring increase in fluorescence intensity at 1 to 8 ug/ml incubated for 30 mins by calcein-AM/PI staining based fluorescence microscopic analysis; conditions: dose 1-8 µg/ml
HEK-293T = assay: Cytotoxicity against human HEK293T cells assessed as cell viability at 0.5 to 64 ug/ml incubated for 24 hrs by MTT assay; type: toxicity, cell-based; conditions: dose 0.5-64 µg/ml
HeLa = assay: Cytotoxicity against human HeLa cells assessed as cell viability at 0.5 to 64 ug/ml incubated for 24 hrs by MTT assay; type: toxicity, cell-based; conditions: dose 0.5-64 µg/ml
Staphylococcus aureus [15] = assay: Antibacterial activity against methicillin-resistant Staphylococcus aureus N315 assessed as inhibition of bacterial growth at 0.5 to 16 ug/ml measured after 24 hrs by microplate reader assay; type: functional, organism-based; conditions: dose 0.5-16 µg/ml
Cell membrane [16] = assay: Induction of cell membrane disruption in Pseudomonas aeruginosa ATCC 27853 assessed as increase in nucleotides leakage at 0.5 to 6 ug/ml incubated under agitation condition by UV absorption based analysis; type: subcellular; conditions: dose 0.5-6 µg/ml
Cell membrane [17] = assay: Induction of cell membrane disruption in Pseudomonas aeruginosa ATCC 27853 assessed as increase in protein leakage at 0.5 to 6 ug/ml incubated under agitation condition by Bradford assay; conditions: dose 0.5-6 µg/ml
Cell membrane [18] = assay: Induction of outer membrane permeabilization in Pseudomonas aeruginosa ATCC 27853 assessed as increase in NPN uptake by measuring increase in fluorescence intensity at 1 ug/ml by NPN-dye based fluorescence analysis; conditions: dose 1.0 µg/ml

## Sc1nnc(COc2cccc3c2c2ccccc2n3CC2CCCC2)o1
Pseudomonas aeruginosa [1]
  MIC: 256 µg/mL (≈ 675 µM)
Enterococcus faecalis
  MIC: 2 µg/mL (≈ 5.27 µM)
Staphylococcus aureus [2]
  MIC: 1 µg/mL (≈ 2.64 µM)
Acinetobacter baumannii
  MIC: 1 µg/mL (≈ 2.64 µM)
Staphylococcus aureus [3]
  MIC: 8 µg/mL (≈ 21.1 µM)
Escherichia coli [4]
  MIC: 2 µg/mL (≈ 5.27 µM)
Pseudomonas aeruginosa [5]
  Activity: Active
Pseudomonas aeruginosa [6]
  MIC: 0.25 µg/mL (≈ 0.659 µM)
Staphylococcus aureus [7]
  Activity: Active
Klebsiella pneumoniae
  MIC: 1 µg/mL (≈ 2.64 µM)
Escherichia coli [8]
  MIC: 1 µg/mL (≈ 2.64 µM)
Staphylococcus aureus [9]
  MIC: 0.25 µg/mL (≈ 0.659 µM)
Staphylococcus aureus [10]
  MIC: 256 µg/mL (≈ 675 µM)

## C=CCn1c2ccccc2c2c(OCc3nnn[nH]3)cccc21
[11]
  hemolysis at 1 h: < 3%
Pseudomonas aeruginosa [1]
  MIC: 128 µg/mL (≈ 419 µM)
Enterococcus faecalis
  MIC: 4 µg/mL (≈ 13.1 µM)
Staphylococcus aureus [12]
  Activity: Active
Staphylococcus aureus [2]
  MIC: 64 µg/mL (≈ 210 µM)
Acinetobacter baumannii
  MIC: 128 µg/mL (≈ 419 µM)
Staphylococcus aureus [3]
  MIC: 32 µg/mL (≈ 105 µM)
Escherichia coli [4]
  MIC: 32 µg/mL (≈ 105 µM)
Staphylococcus aureus [13]
  Activity: Active
Cell membrane [14]
  Activity: Active
HEK-293T
  Activity: Non-Toxic
Pseudomonas aeruginosa [6]
  MIC: 0.5 µg/mL (≈ 1.64 µM)
HeLa
  Activity: Non-Toxic
Klebsiella pneumoniae
  MIC: 64 µg/mL (≈ 210 µM)
Escherichia coli [8]
  MIC: 1 µg/mL (≈ 3.28 µM)
Staphylococcus aureus [15]
  Activity: Active
Cell membrane [16]
  Activity: Active
Staphylococcus aureus [9]
  MIC: 2 µg/mL (≈ 6.55 µM)
Staphylococcus aureus [10]
  MIC: 128 µg/mL (≈ 419 µM)
Cell membrane [17]
  Activity: Active
Cell membrane [18]
  Activity: Active

## Sc1nnc(COc2cccc3c2c2ccccc2n3CC2CC2)o1
Pseudomonas aeruginosa [1]
  MIC: 256 µg/mL (≈ 728 µM)
Enterococcus faecalis
  MIC: 8 µg/mL (≈ 22.8 µM)
Staphylococcus aureus [2]
  MIC: 4 µg/mL (≈ 11.4 µM)
Acinetobacter baumannii
  MIC: 16 µg/mL (≈ 45.5 µM)
Staphylococcus aureus [3]
  MIC: 8 µg/mL (≈ 22.8 µM)
Escherichia coli [4]
  MIC: 1 µg/mL (≈ 2.85 µM)
Pseudomonas aeruginosa [5]
  Activity: Active
Pseudomonas aeruginosa [6]
  MIC: 1 µg/mL (≈ 2.85 µM)
Staphylococcus aureus [7]
  Activity: Active
Klebsiella pneumoniae
  MIC: 4 µg/mL (≈ 11.4 µM)
Escherichia coli [8]
  MIC: 4 µg/mL (≈ 11.4 µM)
Staphylococcus aureus [9]
  MIC: 0.5 µg/mL (≈ 1.42 µM)
Staphylococcus aureus [10]
  MIC: 256 µg/mL (≈ 728 µM)

## C=CCn1c2ccccc2c2c(OCc3nnc(S)o3)cccc21
Pseudomonas aeruginosa [1]
  MIC: 256 µg/mL (≈ 759 µM)
Enterococcus faecalis
  MIC: 64 µg/mL (≈ 190 µM)
Staphylococcus aureus [2]
  MIC: 4 µg/mL (≈ 11.9 µM)
Acinetobacter baumannii
  MIC: 8 µg/mL (≈ 23.7 µM)
Staphylococcus aureus [3]
  MIC: 4 µg/mL (≈ 11.9 µM)
Escherichia coli [4]
  MIC: 8 µg/mL (≈ 23.7 µM)
Pseudomonas aeruginosa [5]
  Activity: Active
Pseudomonas aeruginosa [6]
  MIC: 0.5 µg/mL (≈ 1.48 µM)
Klebsiella pneumoniae
  MIC: 4 µg/mL (≈ 11.9 µM)
Escherichia coli [8]
  MIC: 8 µg/mL (≈ 23.7 µM)
Staphylococcus aureus [9]
  MIC: 1 µg/mL (≈ 2.96 µM)
Staphylococcus aureus [10]
  MIC: 256 µg/mL (≈ 759 µM)
